Source: publication PMC12457637, “An aptamer-drug conjugate for promising cancer therapy with comprehensive evaluation from rodents to non-human primates” (Signal Transduction and Targeted Therapy, 2025)
Starred links: 1 amine or outer side, 2 acyl side, 3 side chain; linkers in the order of their positions; H or OH if unused. Non-standard residues stand in square brackets, D forms with d. Residues, ends and D or L forms follow the SMILES beside them. *: point of attachment. Dolaproine = CO[C@@H]([C@@H]1CCCN1)[C@@H](C)C(=O)O; Hexanoyl(6-maleimido) = O=C1C=CC(=O)N1CCCCCC(=O)*; Dil = CC[C@H](C)[C@H](NC)[C@@H](CC(=O)O)OC; PABC = O=C(OCc1ccc(N[*:1])cc1)[*:2]; X1 = C[C@@H](N*)[C@@H](O)c1ccccc1; Cit = NC(=O)NCCC[C@H](N)C(=O)O; NMeV = CN[C@H](C(=O)O)C(C)C

Assays:
Type in all cases: cell-based
[1] = test system: MIA PaCa-2 cells; assay: 72-h cytotoxicity (MTS), MIA PaCa-2; conditions: MIA PaCa-2, 72-h incubation
Protocol: (§1) Cells were seeded in wells of a 96-well plate (6000 cells/well) and incubated overnight to allow for cell adherence. On the second day, 100 μL complete medium containing VcMMAE and Sgc8c-M (400, 200, 100, 50, 25, 12.5, and 6.25 nM), as well as MMAE (5, 2.5, 1.25, 0.625, 0.3125, 0.15625, and 0.078125 nM), were added to wells of a 96-well plate for an additional 72-h incubation at 37 °C. At the end of incubation, 100 μL of CellTiter 96® Aqueous One Solution Cell Proliferation Assay (MTS, Promega) solution (prepared by mixing 2 mL MTS with 9 mL of complete medium) were added to each well. The plates were then incubated for an additional 1–2 h to allow for the formation of formazan crystals. The absorbance of each well was measured at 490 nm using a Multi-Mode Microplate Reader (TECAN, SPARK) to assess cell viability. Cell viability was calculated as [OD490 (treatment) - OD490 (blank)]/[OD490 (nontreatment) - OD490 (blank)] × 100%.

[2] = test system: HT-29 cells; assay: 72-h cytotoxicity (MTS), HT-29; conditions: HT-29, 72 h
Protocol: as §1

[3] = test system: OVCAR3 cells; assay: 72-h cytotoxicity (MTS), OVCAR3; conditions: OVCAR3, 72 h
Protocol: as §1

## CC[C@H](C)[C@@H]([C@@H](CC(=O)N1CCC[C@H]1[C@H](OC)[C@@H](C)C(=O)N[C@H](C)[C@@H](O)c1ccccc1)OC)N(C)C(=O)[C@@H](NC(=O)[C@H](C(C)C)N(C)C(=O)OCc1ccc(NC(=O)[C@H](CCCNC(N)=O)NC(=O)[C@@H](NC(=O)CCCCCN2C(=O)C=CC2=O)C(C)C)cc1)C(C)C [VcMMAE, MC-VC-PAB-MMAE] ({Hexanoyl(6-maleimido)}-V[Cit][PABC][NMeV]V[Dil][Dolaproine]-X1)
[1]
  IC50: 0.187 µM
[2]
  IC50: 0.203 µM
[3]
  IC50: 0.105 µM
